In US20160215348A1, “GENE EXPRESSION BIOMARKERS AND THEIR USE FOR DIAGNOSTIC AND PROGNOSTIC APPLICATION IN PATIENTS POTENTIALLY IN NEED OF HDAC INHIBITOR TREATMENT” (4SC AG, priority 2013, published 2016):

Tested on: ZFP64
Experiment: qPCR relative expression (vs cycle 1, day 1, hour 0) in patients' whole blood
Format: in vivo, human
Settings: HCC patients; Sorafenib 400 mg added to Resminostat 600 mg
Protocol: 2.5 ml whole blood from patients was collected in PAXgene™ tubes (BD Biosciences) that contain chemicals to lyse the erythrocytes, stabilize RNA from degradation by RNases and minimize ex vivo changes in gene expression. The samples were incubated at 20° C. to 25° C. for 2 hours and then frozen at −20° C. until purification of total RNA.
Total RNA was isolated from the whole blood samples stabilized in PAXgene™ buffer using a spin column based technique suitable for whole blood samples (like PAXgene™ Blood miRNA Kit or PAXgene™ Blood RNA Kit from Qiagen) according to the manufacturer's instructions. The purification began with a centrifugation step to pellet nucleic acids in the (PAXgene™ Blood RNA) tube. The resuspended pellet was incubated in buffers, optimized for maintenance of RNA stability together with proteinase K to bring about protein digestion. An additional centrifugation through the PAXgene™ Shredder spin column was carried out to homogenize the cell lysate and remove residual cell debris, and the supernatant of the flow-through fraction was transferred to a fresh microcentrifuge tube. Ethanol was added to adjust binding conditions, and the lysate was applied to a PAXgene™ RNA spin column. During a brief centrifugation, RNA was selectively bound to the PAXgene™ silica membrane as contaminants pass through. Remaining contaminants were removed in several efficient wash steps. Between the first and second wash steps, the membrane was treated with DNase I, as described herein below in 1.3 to remove trace amounts of bound DNA. After the wash steps, RNA was eluted in nuclease free water and heat-denatured.
The High-Capacity cDNA Reverse Transcription Kit (Applied Biosystems) was used for reverse transcription of total RNA into single stranded cDNA with the aid of random hexamer primers according to the manufacturer's instructions. Briefly, for the reaction mix total RNA was mixed with random primers in excess, 4 mM dNTP Mix, 2.5 U/reaction, reverse transcriptase and nuclease free water. The reverse transcription took place in a thermal cycler under the following conditions: 25° C. for 10 min, 37° C. for 120 min, 85° C. for 5 min, followed by 4° C. for cooling down the reaction. The reverse transcription can be done in principle as well with other reverse transcriptases, primers and temperature protocols. Whenever possible, 250 ng total RNA were reverse transcribed if not available, lower amounts were used.
Custom TaqMan® Arrays (Applied Biosystems) in Format 16 were designed for the gene expression analysis of biomarkers of the present invention and housekeeping genes as outlined in table 4. These arrays allow for qPCR analysis of 8 samples per card. Of course, all reactions can be done as well by conventional qPCR analysis with specific primers.
The reaction mix was transferred into the reaction chambers by centrifuging twice for 1 minute each at 330 g and 4° C. After sealing, the microfluidic cards were run on an AB7900HT instrument (Applied Biosystems). The software SDS 2.4 (Applied Biosystems) was employed for instrument control, data acquisition and raw data analysis. The plates were run in Relative Quantification (ΔΔCt) mode, and the following temperature profile was used:
This analysis was carried out for each patient separately. The first sample (cycle 1, day 1, hour 0) was used as the reference sample. The ‘exprs’ value indicates relative expression levels (fold change values) for individual samples.
Table 5 contains the median expression level values for treatment day 5 (cycle 1, day 5, hours 0, 2, and 5) at a daily dose of 600 mg or 800 mg Resminostat mesylate salt is given below.

Structure (SMILES): CNC(=O)c1cc(Oc2ccc(NC(=O)Nc3ccc(Cl)c(C(F)(F)F)c3)cc2)ccn1 [sorafenib, reference compound]
- Effect of additional administration on ZFP64 expression (FIG. 4b): does not affect
